Laboratory results: patent US20230235077A1, “MATERIALS AND METHODS OF TREATING CANCER” (THE GENERAL HOSPITAL CORPORATION, priority 2020, published 2023)

How the values were obtained:
D4M.3A melanoma cells = assay: D4M.3A melanoma in mice: interval versus continuous mepazine with anti-PD-1 (Example 1); type: in vivo; settings: female C57BL/6 mice; mepazine 16 mg/kg i.p. daily on days 7-10 only versus continuously to day 19; with anti-PD-1 mAb 200 μg i.p. daily; FIG. 1
Method: Female C57BL/6 mice were implanted subcutaneously with 10^6 D4M.3A melanoma cells. Starting 7 days later (arrow), animals were treated with daily i.p. injections of 200 μg of anti-PD-1 mAbs (clone 29F.1A12) or isotype control mAb (rat IgG2a). Some animals in addition received daily i.p. injections of 16 mg/kg bodyweight of the allosteric MALT-1 inhibitor mepazine, either for the first 4 days (days 7-10) only, or continuously until the end of the experiment on day 19. Tumor size was measured using a caliper every 2-3 days. n=4/group. *=p<0.05 versus Ctrl.

D4M.3A syngeneic tumors [1] = assay: D4M.3A syngeneic tumor efficacy study: (S)-mepazine PO 5 days on/5 days off or QD with anti-PD1 (Example 7); type: in vivo; settings: male C57BL/6 mice; (S)-mepazine PO 5 days on and 5 days off versus each day; with anti-PD1 200 μg at days 0, 2, 4; FIG. 4
Method: Male C57BL/6 mice were implanted subcutaneously with D4M.3A syngeneic tumors. The mice were dosed with (S)-mepazine PO and with anti-PD1 mouse clone 29F.1A12 dosed 3 times 200 μg/dose at days 0, 2, and 4 of a treatment cycle. The mice were dosed 5 days on with (S)-mepazine and 5 days off (a dose holiday) (5+5) or each day with (S)-mepazine (QD) PO. Tumor volume was measured each day.

D4M.3A syngeneic tumors [2] = assay: D4M.3A syngeneic tumor efficacy study: (S)-mepazine IP ×3, ×7 or QD with anti-PD1 (Example 6); type: in vivo, C57BL/6 mice
Method: Male C57BL/6 mice were implanted subcutaneously with D4M.3A syngeneic tumors. The mice were dosed with (S)-mepazine IP and with anti-PD1 mouse clone 29F.1A12 dosed 3 times 200 μg/dose at days 0, 2, and 4 of a treatment cycle. A ×3 arm of mice were dosed at days 0, 1, and 3 of a 21 day treatment cycle with (S)-mepazine IP. A ×7 arm of mice were dosed at days 0-6 of a 21 day treatment cycle with (S)-mepazine IP. A QD arm of mice were dosed daily with (S)-mepazine IP. Tumor volume was measured each day. The results of the study are shown in FIGS. 2 and 3, for ×3 arm and ×7 arm, respectively.

SMILES	Tumor size, interval versus continuous treatment (D4M.3A melanoma cells)	Tumor volume, 5+5 dosing versus QD dosing (D4M.3A syngeneic tumors [1])	Tumor control of ×3 and ×7 arms versus QD dosing arm (D4M.3A syngeneic tumors [2]; (S)-mepazine IP with anti-PD1, up to 7 days after (S)-mepazine was dosed)	Tumor volume, activity against the tumor compared to anti-PD1 alone, ×3 arm (D4M.3A syngeneic tumors [2]; male C57BL/6 mice, (S)-mepazine IP on days 0, 1 and 3 of 21 day cycle, with anti-PD1 200 μg at days 0, 2, 4, FIG. 2)	Tumor volume, activity against the tumor compared to anti-PD1 alone, ×7 arm (D4M.3A syngeneic tumors [2]; male C57BL/6 mice, (S)-mepazine IP on days 0-6 of 21 day cycle, with anti-PD1 200 μg at days 0, 2, 4, FIG. 3)	Duration of efficacy for tumor control after (S)-mepazine was dosed (D4M.3A syngeneic tumors [2]; ×3 and ×7 arms, (S)-mepazine IP with anti-PD1, male C57BL/6 mice)
CN1CCCC(CN2c3ccccc3Sc3ccccc32)C1 (racemic) [mepazine]	at least as effective as continuous treatment					
CN1CCC[C@H](CN2c3ccccc3Sc3ccccc32)C1 [(S)-mepazine]		equivalent to a QD dosing schedule	comparable to the QD dosing arm	improved activity against the tumor compared to anti-PD1 alone	improved activity against the tumor compared to anti-PD1 alone	up to 7 days
